Reference: paper PMC6268027, “Acetylcholinesterase-Inhibiting Activity of Salicylanilide N-Alkylcarbamates and Their Molecular Docking” (Molecules, 2012)

Legend:
[1] = Lipophilicity determination by RP-HPLC (capacity factor k / log k); assay type: physicochemical; conditions: Symmetry C18, MeOH 70% / H2O 30%, column 45 °C
Excerpt: A Waters Alliance 2695 XE HPLC separation module and a Waters Photodiode Array Detector 2996 (Waters Corp., Milford, MA, USA) were used. A Symmetry® C18 5 μm, 4.6 × 250 mm chromatographic column, Part No. WAT054275 (Waters Corp., Milford, MA, USA) was used. The HPLC separation process was monitored by Empower™ 2 Chromatography Data Software, Waters 2009 (Waters Corp., Milford, MA, USA). A mixture of MeOH p.a. (70%) and H2O-HPLC–Mili-Q Grade (30%) was used as a mobile phase. The total flow of the column was 1.0 mL/min, injection volume, 30 μL, column temperature, 45 °C and sample temperature, 10 °C. The detection wavelength of 210 nm was chosen. The KI methanolic solution was used for the dead time (tD) determination. The retention times (tR) were measured in minutes. The capacity factors k were calculated using the Empower™ 2 Chromatography Data Software according to formula k = (tR− tD)/tD, where tR is the retention time of the solute, whereas tD denotes the dead time obtained using an unretained analyte. Log k, calculated from the capacity factor k, is used as the lipophilicity index converted to log P scale.

[2] = molecular target: T1, acetylcholinesterase (AChE) from electric eel (Electrophorus electricus, UniProt O42275); test: AChE inhibition, spectrophotometric Ellman's method; assay type: biochemical, Electrophorus electricus L.; conditions: for IC50: electric eel AChE, Ellman's method, mean ± SD (n = 3 experiments); for AChE inhibition, fold higher than RIV: IC50 compared with rivastigmine
T1 construct: purchased Sigma
Experimental: The ability of the tested compounds to inhibit acetylcholinesterase (purchased from Sigma) from electric eel (Electrophorus electricus L.) was tested. […] The IC50 values were determined by the spectrophotometric Ellman’s method.
The IC50 values were determined using the spectrophotometric Ellman’s method, which is a simple, rapid and direct method to determine the SH and -S-S- group content in proteins. This method is widely used for measuring of cholinesterase activity and effectivity of cholinesterase inhibitors. Cholinesterase activity is measured indirectly by quantifying the concentration of 5-thio-2-nitrobenzoic acid (TNB) ion formed in the reaction between the thiol reagent 5,5′-dithiobis-2-nitrobenzoic acid (DTNB) and thiocholine, a product of substrate (i.e., acetylthiocholine, ATCh) hydrolysis by cholinesterase. All tested compounds were dissolved in dioxane (concentration 0.01 M) and then diluted in demineralised water (concentration 0.001 M and 0.0001 M). The procedure of determination of IC50 is a slightly modified Ellman’s method according to Zdrazilova and described in detail in [49]. For determination of IC50 values the inhibition was determined for 25 different compound concentrations with three replicates.

T1 sequence (O42275 24-633): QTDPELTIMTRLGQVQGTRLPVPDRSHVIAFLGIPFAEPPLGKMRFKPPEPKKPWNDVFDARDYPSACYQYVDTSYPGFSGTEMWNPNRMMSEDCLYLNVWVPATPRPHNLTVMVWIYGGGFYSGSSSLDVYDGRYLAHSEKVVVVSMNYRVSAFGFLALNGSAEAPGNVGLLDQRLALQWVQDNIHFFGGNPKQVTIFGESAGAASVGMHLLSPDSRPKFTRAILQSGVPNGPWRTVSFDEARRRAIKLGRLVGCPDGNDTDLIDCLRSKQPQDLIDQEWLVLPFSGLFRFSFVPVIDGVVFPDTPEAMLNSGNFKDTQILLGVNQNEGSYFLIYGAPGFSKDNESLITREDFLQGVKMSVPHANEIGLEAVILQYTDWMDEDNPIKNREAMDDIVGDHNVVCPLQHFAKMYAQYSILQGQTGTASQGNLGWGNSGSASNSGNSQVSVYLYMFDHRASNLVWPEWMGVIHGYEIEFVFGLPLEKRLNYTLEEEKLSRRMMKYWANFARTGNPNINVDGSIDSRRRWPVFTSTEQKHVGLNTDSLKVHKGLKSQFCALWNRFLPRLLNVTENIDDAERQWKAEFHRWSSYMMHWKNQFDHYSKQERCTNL

Structure (SMILES)	log k [1]	IC50 [2]	AChE inhibition, fold higher than RIV [2]
CCNC(=O)Oc1ccc(Cl)cc1C(=O)Nc1cccc(Cl)c1 [4a]	0.7523		
CCCCNC(=O)Oc1ccc(Cl)cc1C(=O)Nc1cccc(Cl)c1 [4b]	0.7611		
CCCCCNC(=O)Oc1ccc(Cl)cc1C(=O)Nc1cccc(Cl)c1 [4c]	0.7732	50.4 ± 0.48 µM	
CCCCCCNC(=O)Oc1ccc(Cl)cc1C(=O)Nc1cccc(Cl)c1 [4d]	0.7758	35.1 ± 0.31 µM	
CCCCCCCNC(=O)Oc1ccc(Cl)cc1C(=O)Nc1cccc(Cl)c1 [4e]	0.7772	61.7 ± 0.5 µM	
CCCCCCCCNC(=O)Oc1ccc(Cl)cc1C(=O)Nc1cccc(Cl)c1 [4f]	0.7831	69.9 ± 0.49 µM	
CCCCCCCCCNC(=O)Oc1ccc(Cl)cc1C(=O)Nc1cccc(Cl)c1 [4g]	0.7837	34.2 ± 0.26 µM	
CCCCCCCCCCNC(=O)Oc1ccc(Cl)cc1C(=O)Nc1cccc(Cl)c1 [4h]	0.7873	52.7 ± 0.45 µM	
CCCCCCCCCCCNC(=O)Oc1ccc(Cl)cc1C(=O)Nc1cccc(Cl)c1 [4i]	0.7902	56.9 ± 0.48 µM	
CCNC(=O)Oc1ccc(Cl)cc1C(=O)Nc1ccc(Cl)cc1 [5a]	0.7695	59.1 ± 0.33 µM	
CCCCNC(=O)Oc1ccc(Cl)cc1C(=O)Nc1ccc(Cl)cc1 [5b]	0.7759	48.1 ± 0.31 µM	
CCCCCNC(=O)Oc1ccc(Cl)cc1C(=O)Nc1ccc(Cl)cc1 [5c]	0.7838	41.7 ± 0.29 µM	
CCCCCCNC(=O)Oc1ccc(Cl)cc1C(=O)Nc1ccc(Cl)cc1 [5d]	0.7859	31 ± 0.29 µM	
CCCCCCCNC(=O)Oc1ccc(Cl)cc1C(=O)Nc1ccc(Cl)cc1 [5e]	0.7872	49.4 ± 0.31 µM	
CCCCCCCCNC(=O)Oc1ccc(Cl)cc1C(=O)Nc1ccc(Cl)cc1 [5f]	0.7899	62.5 ± 0.41 µM	
CCCCCCCCCNC(=O)Oc1ccc(Cl)cc1C(=O)Nc1ccc(Cl)cc1 [5g]	0.7919	52.2 ± 0.39 µM	
CCCCCCCCCCNC(=O)Oc1ccc(Cl)cc1C(=O)Nc1ccc(Cl)cc1 [5h]	0.7942	64.6 ± 0.41 µM	
CCCCCCCCCCCNC(=O)Oc1ccc(Cl)cc1C(=O)Nc1ccc(Cl)cc1 [5i]	0.7947	44.3 ± 0.33 µM	
CCNC(=O)Oc1ccc(Cl)cc1C(=O)Nc1ccc(Cl)c(Cl)c1 [6a]	1.0234	67.3 ± 0.52 µM	
CCCCNC(=O)Oc1ccc(Cl)cc1C(=O)Nc1ccc(Cl)c(Cl)c1 [6b]	1.0457	64.7 ± 0.79 µM	
CCCCCNC(=O)Oc1ccc(Cl)cc1C(=O)Nc1ccc(Cl)c(Cl)c1 [6c]	1.0601	56 ± 0.42 µM	
CCCCCCNC(=O)Oc1ccc(Cl)cc1C(=O)Nc1ccc(Cl)c(Cl)c1 [6d]	1.0611	41.2 ± 0.36 µM	
CCCCCCCNC(=O)Oc1ccc(Cl)cc1C(=O)Nc1ccc(Cl)c(Cl)c1 [6e]	1.0667	36.7 ± 0.28 µM	
CCCCCCCCNC(=O)Oc1ccc(Cl)cc1C(=O)Nc1ccc(Cl)c(Cl)c1 [6f]	1.0845	32.1 ± 0.29 µM	
CCCCCCCCCNC(=O)Oc1ccc(Cl)cc1C(=O)Nc1ccc(Cl)c(Cl)c1 [6g]	1.0880	43.9 ± 0.32 µM	
CCCCCCCCCCNC(=O)Oc1ccc(Cl)cc1C(=O)Nc1ccc(Cl)c(Cl)c1 [6h]	1.0894	21.8 ± 0.2 µM	23 fold
CCCCCCCCCCCNC(=O)Oc1ccc(Cl)cc1C(=O)Nc1ccc(Cl)c(Cl)c1 [6i]	1.0903	29.9 ± 0.22 µM	16 fold
